Reference: US7030114B1, “Compounds which inhibit leukocyte adhesion mediated by VLA-4” (Elan Pharmaceuticals, Inc., priority 1997, dated 2006)

Tested on: Experimental Autoimmune (or Allergic) Encephalomyelitis (“EAE”)
Assay: In vivo evaluation: Experimental Autoimmune (or Allergic) Encephalomyelitis (EAE) model, motor impairment
Set-up: species or system rats or guinea pigs
Conditions: treatment from Day 8, bid for five days, SC, PO or IP

Cc1ccc(S(=O)(=O)N2CCC[C@@]2(C)C(=O)N[C@@H](Cc2ccc(OC(=O)N3CCN(C)CC3)cc2)C(=O)OC(C)(C)C)cc1 [Example 47, N-(toluene-4-sulfonyl)-α-methylprolyl-L-4-(4-methylpiperazin-1-carbonyloxy)phenylalanine tert-butyl ester]
activity in EAE model (delayed the onset of symptoms, e.g., clinical scores no greater than 2 or slowed body weight loss as compared to the control): active
